In US8846739B2, “TGR5 agonists” (Exelixis Patent Company LLC, priority 2009, dated 2014):

How the values were obtained:
h-TGR5 = target: T1, h-TGR5 (Homo sapiens, UniProt Q8TDU6); assay: TGR5 cAMP Assay using Cisbio cAMP Dynamic 2 htrf assay kit; assay type: cell-based; conditions: hTGR5CRE-luc HEK 293 cells
T1 sequence (Q8TDU6 1-330): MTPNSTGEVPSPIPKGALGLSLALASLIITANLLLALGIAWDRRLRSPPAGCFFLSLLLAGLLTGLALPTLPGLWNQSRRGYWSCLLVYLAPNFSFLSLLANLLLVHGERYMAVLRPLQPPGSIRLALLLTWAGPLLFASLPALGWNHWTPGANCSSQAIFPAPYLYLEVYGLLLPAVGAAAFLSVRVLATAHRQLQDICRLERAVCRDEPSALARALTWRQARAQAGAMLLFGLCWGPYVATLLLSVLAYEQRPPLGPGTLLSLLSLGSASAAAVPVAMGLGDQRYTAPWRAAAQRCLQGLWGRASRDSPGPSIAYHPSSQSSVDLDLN

human TGR5 (h-TGR5) = target: T2, human TGR5 (h-TGR5) (Homo sapiens, UniProt Q8TDU6); assay: TGR5/CRE-Luciferase Assay; assay type: cell-based; conditions: HEK 293 hTGR5/CRE-Luc cells, 6 hours incubation, read-out: CRE-Luc Agonist (EC50)
T2 sequence (Q8TDU6 1-330): T1 sequence (Q8TDU6 1-330)
Method in brief: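 HEK 293 CRE-Luciferase cells stably expressing the receptor, plated in DMEM 18-20 h before assay, then exposed to serially diluted compounds (DMEM with 5% DMSO) for 6 h. Luciferase read-out after lysis; EC50 from dose-response.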

SMILES	EC50 (h-TGR5) [nM]	EC50 (human TGR5 (h-TGR5)) [nM]
CC[N+](CC)(CC)CCCNS(=O)(=O)c1cc(F)c(CSc2ncc(C(C)(C)c3ccc(F)c(OC)c3)n2-c2ccc(F)cc2)c(Cl)c1 [Example 6o, 3-({[3-chloro-5-fluoro-4-({[5-{1-[4-fluoro-3-(methyloxy)phenyl]-1-methylethyl}-1-(4-fluorophenyl)-1H-imidazol-2-yl]thio}methyl)phenyl]sulfonyl}amino)-N,N,N-triethylpropan-1-aminium]	< 100	< 100
COc1cc(C(C)(C)c2cnc(SCc3cc(S(=O)(=O)N(CCC[N+](C)(C)C)CCC[N+](C)(C)C)c(F)cc3Cl)n2-c2ccc(F)cc2)ccc1Cl [Example 6p, 3,3′-({[4-chloro-5-({[5-{1-[4-chloro-3-(methyloxy)phenyl]-1-methylethyl}-1-(4-fluorophenyl)-1H-imidazol-2-yl]thio}methyl)-2-fluorophenyl]sulfonyl}imino)bis(N,N,N-trimethylpropan-1-aminium)]	100 to 1000	100 to 1000
COc1cc(C(C)(C)c2cnc(SCc3cc(S(=O)(=O)NCCC[N+](C)(C)C)c(Cl)cc3F)n2-c2ccc(F)cc2)ccc1Cl [Example 6q, 3-({[2-chloro-5-({[5-{1-[4-chloro-3-(methyloxy)phenyl]-1-methylethyl}-1-(4-fluorophenyl)-1H-imidazol-2-yl]thio}methyl)-4-fluorophenyl]sulfonyl}amino)-N,N,N-trimethylpropan-1-aminium]	< 100	< 100
COc1cc(C(C)(C)c2cnc(SCc3c(F)cc(S(=O)(=O)NCCCC[N+](C)(C)C)cc3F)n2-c2ccc(F)cc2)ccc1Cl [Example 6r, 4-({[4-({[5-{1-[4-chloro-3-(methyloxy)phenyl]-1-methylethyl}-1-(4-fluorophenyl)-1H-imidazol-2-yl]thio}methyl)-3,5-difluorophenyl]sulfonyl}amino)-N,N,N-trimethylbutan-1-aminium]	< 100	< 100
COc1cc(C(C)(C)c2cnc(SCc3cc(S(=O)(=O)NCCC[N+](C)(C)C)c(F)cc3Cl)n2-c2ccc(F)cc2)ccc1Cl [Example 7, 3-(4-Chloro-5-((5-(2-(4-chloro-3-methoxyphenyl)propan-2-yl)-1-(4-fluorophenyl)-1H-imidazol-2-ylthio)methyl)-2-fluorophenylsulfonamido)-N,N,N-trimethylpropan-1-aminium 2,2,2-trifluoroacetate]	< 100	< 100

Next, values leading:

EC50 (h-TGR5) [nM]	EC50 (human TGR5 (h-TGR5)) [nM]	SMILES
< 100	< 100	COc1cc(C(C)(C)c2cnc(SCc3ccc(Cl)c(S(=O)(=O)NCCC[N+](C)(C)C)c3)n2-c2ccc(F)cc2)ccc1Cl [Example 6l, 3-({[2-chloro-5-({[5-{1-[4-chloro-3-(methyloxy)phenyl]-1-methylethyl}-1-(4-fluorophenyl)-1H-imidazol-2-yl]thio}methyl)phenyl]sulfonyl}amino)-N,N,N-trimethylpropan-1-aminium]
< 100	< 100	CC[N+](CC)(CC)CCCNS(=O)(=O)c1cc(F)c(CSc2ncc(C(C)(C)c3ccc(Cl)c(OC)c3)n2-c2ccc(F)cc2)c(F)c1 [Example 6m, 3-({[4-({[5-{1-[4-chloro-3-(methyloxy)phenyl]-1-methylethyl}-1-(4-fluorophenyl)-1H-imidazol-2-yl]thio}methyl)-3,5-difluorophenyl]sulfonyl}amino)-N,N,N-triethylpropan-1-aminium]
< 100	< 100	COc1ccc(C(C)(C)c2cnc(SCc3c(F)cc(S(=O)(=O)NCCC[N+](C)(C)C)cc3F)n2-c2ccc(F)cc2)cc1Cl [Example 6n, 3-({[4-({[5-{1-[3-chloro-4-(methyloxy)phenyl]-1-methylethyl}-1-(4-fluorophenyl)-1H-imidazol-2-yl]thio}methyl)-3,5-difluorophenyl]sulfonyl}amino)-N,N,N-trimethylpropan-1-aminium]
